Experiments:
male Wistar rats = test: 30-min filament middle cerebral artery occlusion; format: in vivo, rat; settings: 48 h after MCAO; healthy 18 points, maximal deficit 3 points
HFD C57BL/6J mice = test: obesity-induced cardiac dysfunction, high-fat diet mice; format: in vivo; settings: 10 mg/kg/day intragastric for 8 weeks
[1] = SURPASS-2, add-on to metformin in type 2 diabetes; format: in vivo, human; settings: TZP range over 5-15 mg; SEMA 1 mg
[2] = test system: people with T2D inadequately controlled with diet and exercise; test: SURPASS-1 trial; format: in vivo, human; settings: across TZP doses
[3] = SURPASS-5, add-on to insulin glargine in type 2 diabetes; settings: range over 5, 10, 15 mg
[4] = Tirzepatide single-dose PK in hepatic impairment; format: in vivo, human
C57BL/6 mice = test: High-fat diet-fed mice, 8 weeks of treatment; format: in vivo, mouse; settings: HFD mice, 10mg/kg for 8 weeks
[5] = 3-year prospective observational study of quadruple oral therapy in T2DM; format: in vivo, human; settings: empagliflozin 25 mg/day, dapagliflozin 10 mg/day
[6] = EMPA-REG OUTCOME, uric acid and gout analysis; format: in vivo, human
[7] = VERTIS CV, analysis in older patients; format: in vivo, human
[8] = Danish registry cohort, hypoglycaemic episodes leading to hospitalisation; format: in vivo, human

## OC[C@H]1O[C@@H](c2ccc(Cl)c(Cc3ccc(O[C@H]4CCOC4)cc3)c2)[C@H](O)[C@@H](O)[C@@H]1O [EMPA, empagliflozin]
Male Wistar rats
  Garcia score (neurological deficit): 12.0 (9.5; 14.0) points
HFD C57BL/6J mice
  body weight and whole-body fat: Lower
  myocardial damage: reduced

## CC[C@H](C)[C@H](NC(=O)[C@H](CC(C)C)NC(=O)[C@H](Cc1c[nH]c2ccccc12)NC(=O)[C@H](CCC(N)=O)NC(=O)[C@@H](NC(=O)[C@H](Cc1ccccc1)NC(=O)[C@H](C)NC(=O)[C@H](CCCCNC(=O)COCCOCCNC(=O)COCCOCCNC(=O)CC[C@H](NC(=O)CCCCCCCCCCCCCCCCCCC(=O)O)C(=O)O)NC(=O)[C@H](CCC(N)=O)NC(=O)[C@H](C)NC(=O)[C@@H](NC(=O)[C@H](CCCCN)NC(=O)[C@H](CC(=O)O)NC(=O)[C@H](CC(C)C)NC(=O)C(C)(C)NC(=O)[C@@H](NC(=O)[C@H](CO)NC(=O)[C@H](Cc1ccc(O)cc1)NC(=O)[C@H](CC(=O)O)NC(=O)[C@H](CO)NC(=O)[C@@H](NC(=O)[C@H](Cc1ccccc1)NC(=O)[C@@H](NC(=O)CNC(=O)[C@H](CCC(=O)O)NC(=O)C(C)(C)NC(=O)[C@@H](N)Cc1ccc(O)cc1)[C@@H](C)O)[C@@H](C)O)[C@@H](C)CC)[C@@H](C)CC)C(C)C)C(=O)N[C@@H](C)C(=O)NCC(=O)NCC(=O)N1CCC[C@H]1C(=O)N[C@@H](CO)C(=O)N[C@@H](CO)C(=O)NCC(=O)N[C@@H](C)C(=O)N1CCC[C@H]1C(=O)N1CCC[C@H]1C(=O)N1CCC[C@H]1C(=O)N[C@@H](CO)C(N)=O [TZP, Tirzepatide]
[1]
  Diarrhoea: 13-16%
  Nausea: 17-22%
  Vomiting: 6-10%
[2]
  Diarrhoea: 12-14%
  Nausea: 12-18%
[3]
  Diarrhoea, patients reporting: 12-21%
  Incidence of hypoglycaemia (blood glucose <3.0 mmol/L) or severe hypoglycaemia: 14-19%
  Nausea, patients reporting: 13-18%
  Vomiting, patients reporting: 7-13%

## CC[C@H](C)[C@H](NC(=O)[C@H](CC(C)C)NC(=O)[C@H](Cc1c[nH]c2ccccc12)NC(=O)[C@H](CCC(N)=O)NC(=O)[C@@H](NC(=O)[C@H](Cc1ccccc1)NC(=O)[C@H](C)NC(=O)[C@H](CCCCNC(=O)COCCOCCNC(=O)COCCOCCNC(=O)CC[C@H](NC(=O)CCCCCCCCCCCCCCCCCCC(=O)O)C(=O)O)NC(=O)[C@H](CCC(N)=O)NC(=O)[C@H](C)NC(=O)[C@@H](NC(=O)[C@H](CCCCN)NC(=O)[C@H](CC(=O)O)NC(=O)[C@H](CC(C)C)NC(=O)C(C)(C)NC(=O)[C@@H](NC(=O)[C@H](CO)NC(=O)[C@H](Cc1ccc(O)cc1)NC(=O)[C@H](CC(=O)O)NC(=O)[C@H](CO)NC(=O)[C@@H](NC(=O)[C@H](Cc1ccccc1)NC(=O)[C@@H](NC(=O)CNC(=O)[C@H](CCC(=O)O)NC(=O)C(C)(C)NC(=O)[C@@H](N)Cc1ccc(O)cc1)[C@@H](C)O)[C@@H](C)O)[C@@H](C)CC)[C@@H](C)CC)C(C)C)C(=O)N[C@@H](C)C(=O)NCC(=O)NCC(=O)N1CCC[C@H]1C(=O)N[C@@H](CO)C(=O)N[C@@H](CO)C(=O)NCC(=O)N[C@@H](C)C(=O)N1CCC[C@H]1C(=O)N1CCC[C@H]1C(=O)N1CCC[C@H]1C(=O)N[C@@H](CO)C(N)=O [Tirzepatide]
[4]; across all groups
  median tmax: no change
[4]; control and hepatic impairment groups
  geometric least squares mean t1/2: similar

## OC[C@H]1O[C@@H](c2ccc(Cl)c(Cc3ccc(O[C@H]4CCOC4)cc3)c2)[C@H](O)[C@@H](O)[C@@H]1O [empagliflozin, Empagliflozin]
C57BL/6 mice
  Body weight: 40 ± 0.9 g
  Fat mass: 8.5 ± 1.5 g
[5]
  Change in body weight at 3 years: -4.5 ± 2.5 kg
  Change in fasting plasma glucose at 3 years: -59.3 ± 53.3 mg/dL
[6]; pooled empagliflozin
  Hazard ratio (95% CI) for gout flare or initiation of a drug for gout vs placebo: 0.67 (0.53, 0.85)
[6]; pooled empagliflozin, patients not on UA lowering medication at baseline
  Patients with a gout flare or initiation of a drug for gout: 3.6%
[6]; week 52, baseline UA levels ≥6 mg/dL
  Serum uric acid, adjusted mean (95% CI) treatment difference vs placebo: −0.46 (−0.55, −0.38) mg/dL
[6]; week 52, pooled 10 and 25 mg/day
  Serum uric acid, adjusted mean (95% CI) treatment difference vs placebo: −0.37 (−0.42, −0.31) mg/dL

## CCOc1ccc(Cc2cc([C@]34OC[C@](CO)(O3)[C@@H](O)[C@H](O)[C@H]4O)ccc2Cl)cc1 [ertugliflozin]
[7]; patients ≥65 yrs
  Incidence of hypovolemia AEs: 5.3%
[7]; patients ≥75 yrs
  Incidence of hypovolemia AEs: 6.9%

## human insulin
[8]; combination human insulin
  HR for hypoglycaemic episodes leading to hospitalisation: 1.84
[8]; intermediate-acting human insulin
  HR for hypoglycaemic episodes leading to hospitalisation: 1.38

Reference: publication PMC8408311 (Diabetologia, 2021)
